Results from patent US20130178453A1, “Cannabinoid Agonists” (priority 2010, published 2013).
Read-outs that look alike come from different tables or passages of the source.

What was measured:
hCB1 [1] = molecular target: T1, hCB1 (Homo sapiens, UniProt P21554); experiment: hCB1 cAMP agonist assay (HEK-293 cells); assay type: cell-based
hCB1 [2] = molecular target: T1, hCB1; experiment: hCB1 radioligand binding assay ([3H]-CP 55,940 displacement); details: hCB1 IC50 (CP displ, nM, HEK), HEK membranes
Excerpt: (§1) cDNA expression clones for human CB 1 (hCB1, Genbank Accession No. AY225225) and human CB2 (hCB2, Genbank Accession No. AY242132) expressed in vector pcDNA3.1+ were purchased from UMR cDNA Resource Center, Rolla, Mo. (Clone ID CNR01L000 for hCB1; CNR0200000 for hCB2).
Stable, HEK-293-derived cell lines that recombinantly express hCB1 or hCB2 were established. In brief, the clone hCB1 (CNR1L) or hCB2 (CNR2) was transfected into human embryonic kidney cells (HEK-293) using Lipofectamine 2000 (Gibco, Cat#11668-019) according to the manufacturer's protocol. Transfected clones were isolated by single colony purification and clones were screened for receptor expression using a whole cell, ^3H—CP 55,940 radioligand binding assay. HEK-293 stable cells were maintained in Dulbecco's modified Eagles medium (DMEM) containing 10% fetal bovine serum, 2 mM L-glutamine and 0.5 mg/mL G-418.
(§2) Membranes were isolated from transfected cells as follows. Monolayers of cultured cells were washed twice with phosphate-buffered saline (PBS). Cells were scraped into 20 mM HEPES, pH 7.4, 10 mM EDTA containing complete cocktail protease inhibitors (Roche, Catalog #11 697 498 001), and were homogenized by an electric-powered mechanical probe homogenizer (Omni GLH; probe G7-195S) for 40 seconds at 7000 rpm. Homogenates were centrifuged 10 minutes at 1000×g at 4° C. The supernatant was collected and was centrifuged for 1 hour at 40,000×g. The supernatant was then decanted and the resulting pellet was re-suspended in 20 mM HEPES, pH 7.4, 5 mM MgCl2, 1 mM EDTA, 10% sucrose with complete cocktail protease inhibitors. Protein concentration of membrane suspensions were measured by Bradford Protein Assay using bovine serum albumin as the standard (BioRad catalog #500-0006). Protein concentrations of membrane suspensions were adjusted with the final buffer in the range of 5 to 10 mg/mL and were stored at −80° C. until further use.
Radioligand binding assays were performed by incubating membranes (2-10 μg protein) prepared from HEK-293 cells expressing recombinant human cannabinoid receptors, CB 1 or CB2, at room temperature with 0.5 nM cannabinoid receptor agonist, [^3H]-CP 55,940 (Perkin Elmer, catalog #NET 1051) in 0.2 mL of binding buffer (50 mM Tris-HCl, pH 7.5, 5 mM MgCl2, 2.5 mM EDTA) and 0.1% fatty acid free bovine serum albumin (Sigma Cat. #A0821) for 90 minutes. A rapid filtration technique using Millipore FB filter plates (Catalog #MADVNOB) and filtration apparatus (Millipore system Catalog MAVM0960R) with vacuum aspiration was used to harvest and rinse labeled membranes (8 times with 0.2 mL of chilled binding buffer). The radioactivity bound to the filters was counted with 0.05 mL of liquid scintillant (UltraGold MV, PerkinElmer catalog #6013159) in a scintillation counter (Perkin Elmer Microbeta instrument). Nonspecific binding was determined in the presence of unlabeled 1 μM CP 55,940 (Sigma Aldrich, catalog #C1112). Binding data were analyzed using GraphPad Prism (GraphPad Software, Inc. San Diego, Calif.).

hCB2 [3] = molecular target: T2, hCB2 (Homo sapiens, UniProt P34972); experiment: hCB2 GTPγS agonist assay (HEK-293 membranes); assay type: biochemical
T2 sequence (P34972 whole entry): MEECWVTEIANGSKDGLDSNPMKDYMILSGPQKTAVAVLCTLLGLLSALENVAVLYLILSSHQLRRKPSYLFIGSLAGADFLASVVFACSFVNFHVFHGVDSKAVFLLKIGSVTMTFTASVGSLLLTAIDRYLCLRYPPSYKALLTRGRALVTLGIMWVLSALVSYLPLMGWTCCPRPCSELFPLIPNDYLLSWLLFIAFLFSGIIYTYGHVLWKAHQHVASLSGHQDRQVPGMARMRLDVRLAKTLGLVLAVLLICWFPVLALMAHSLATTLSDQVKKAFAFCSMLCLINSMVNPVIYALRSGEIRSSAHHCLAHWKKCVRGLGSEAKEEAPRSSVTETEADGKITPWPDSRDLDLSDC
Method: as §1
as §2, with “Cells were scraped into 20 mM HEPES, pH 7.4, 10 mM EDTA containing complete cocktail protease inhibitors (Roche, Catalog #11 697 498 001), and were homogenized by an electric-powered mechanical probe homogenizer (Omni GLH; probe G7-195S) for 40 seconds at 7000 rpm.” left out
^35S GTPγS binding assays were performed by incubating recombinant cell membranes prepared above (5 μg) in the presence of scintillation proximity assay beads (SPA beads, Catalog #RPNQ0252 GE Healthcare, Buckinghamshire, England) in GTPγS binding buffer [50 mM HEPES (pH 7.4), 100 mM NaCl, 5 mM MgCl2, 0.001% saponin (Sigma catalog #S4521)] supplemented with 20 uM GDP (Sigma catalog #G7127) in the presence or absence of test compound. The reaction was carried out in 96-well microplates with 0.1 nM [^35S]GTPγS (specific activity=1250 Ci/mmol; Perkin Elmer catalog #NEG030X250UC) in a final volume of 100 μL. After a 90 min room temperature incubation, the reaction was analyzed using a scintillation counter (Perkin Elmer Microbeta instrument). Binding data were analyzed using GraphPad Prism.

hCB2 [4] = molecular target: T2, hCB2; experiment: hCB2 cAMP agonist assay (HEK-293 cells); assay type: cell-based
Method: as §1
cAMP assays were performed in HEK-293 cells stably expressing human CB 1 or CB2 receptors. […] Cells suspensions were centrifuged and the cells were washed once with PBS, were centrifuged again, and the cells were resuspended in HBSS (Hank's Balanced Salt Solution, Cellgro, Cat #21-022-CV) solution containing 10 mM HEPES and 0.1% fatty acid free BSA (Sigma, Cat #A0281). Cell suspensions were prepared at 1,500,000 cells per mL. Stock solutions of test substances (10 mM) in DMSO were diluted to 1 mM using 30% DMSO as diluent. Test substances of solutions (1 mM) were further diluted down to 3× of final assay concentrations in the above HBSS buffer containing 0.1% BSA in the presence of 90 uM forskolin (Sigma Cat#F6886). To perform the assay, 20 μL of cell suspension (1,500,000 cells/mL) were added to each well in 96 well plate and treated with 10 μL test substance solution diluted as described above. Cells and compounds were incubated at 37° C. for 30 minutes. Cells were lysed and cAMP concentration was measured using DiscoveRx-XS+ cAMP assay kit (DiscoveRx Corporation Ltd., Fremont, Calif., USA, Cat #90-0075-03), following the manufacturer's protocol. GraphPad Prism software was used to calculate EC50 values using sigmoidal dose response curve fitting. The maximal amount of cAMP produced by forskolin was defined as 100%.

hCB2 [5] = molecular target: T2, hCB2; experiment: hCB2 radioligand binding assay ([3H]-CP 55,940 displacement); details: hCB2 IC50 (CP displ, nM, HEK), HEK membranes
Method: as §1
as §2, with “Cells were scraped into 20 mM HEPES, pH 7.4, 10 mM EDTA containing complete cocktail protease inhibitors (Roche, Catalog #11 697 498 001), and were homogenized by an electric-powered mechanical probe homogenizer (Omni GLH; probe G7-195S) for 40 seconds at 7000 rpm.” left out
A rapid filtration technique using Millipore FB filter plates (Catalog #MADVNOB) and filtration apparatus (Millipore system Catalog MAVM0960R) with vacuum aspiration was used to harvest and rinse labeled membranes (8 times with 0.2 mL of chilled binding buffer). […] Binding data were analyzed using GraphPad Prism (GraphPad Software, Inc. San Diego, Calif.).

[6] = cAMP agonist, HEK, 96-well, read-out: hCB1 EC50 (cAMP ag, nM, HEK (96-well))
[7] = GTPγS agonist, HEK membranes, read-out: hCB2 EC50 (GTPyS ag, nM, HEK)
[8] = cAMP agonist, HEK, 96-well, read-out: hCB2 EC50 (cAMP ag, nM, HEK (96-well))

T1 sequence (P21554 whole entry): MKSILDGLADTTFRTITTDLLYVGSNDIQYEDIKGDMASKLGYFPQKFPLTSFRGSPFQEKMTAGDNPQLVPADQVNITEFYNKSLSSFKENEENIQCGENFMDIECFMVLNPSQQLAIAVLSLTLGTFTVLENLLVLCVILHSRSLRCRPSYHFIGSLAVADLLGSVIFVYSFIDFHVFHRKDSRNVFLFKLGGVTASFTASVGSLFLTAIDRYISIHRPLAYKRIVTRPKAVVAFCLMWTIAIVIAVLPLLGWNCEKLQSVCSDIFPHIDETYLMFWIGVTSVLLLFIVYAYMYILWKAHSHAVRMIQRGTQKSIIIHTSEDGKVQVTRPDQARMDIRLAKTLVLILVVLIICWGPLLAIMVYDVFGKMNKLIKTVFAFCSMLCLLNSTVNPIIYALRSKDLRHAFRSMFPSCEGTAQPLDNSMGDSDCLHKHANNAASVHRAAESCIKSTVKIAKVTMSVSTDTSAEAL

| Compound | EC50 (hCB1 [1]; [6]) | IC50 (hCB1 [2]) | EC50 (hCB2 [3]) | EC50 (hCB2 [4]) | IC50 (hCB2 [5]) | EC50 (hCB1 [1]) | EC50 (hCB2 [3]; [7]) | EC50 (hCB2 [4]; [8]) | hCB1 EC50 (cAMP ag, nM HEK (24-well)) (hCB1 [1]; cAMP agonist, HEK) | hCB1 EC50 (cAMP ag, nM, HEK (96-well)) (hCB1 [1]; cAMP agonist, HEK, 96-well) |
| --- | --- | --- | --- | --- | --- | --- | --- | --- | --- | --- |
| CCCn1c(C(=O)c2cn(C)c3ccccc23)cc2ccsc21 [Compound I-47] | 100 to 1000 nM | 100 to 1000 nM | 100 to 1000 nM | < 100 nM | < 100 nM | – | – | – | – | – |
| CCn1c(C(=O)c2c(C)n(CC3CCOCC3)c3ccccc23)cc2ccsc21 [Compound I-17] | – | 100 to 1000 nM | < 100 nM | < 100 nM | < 100 nM | 100 to 1000 nM | – | – | – | – |
| CCCn1c(C)c(C(=O)c2cc3ccsc3n2CCC)c2c1CCCCC2 [Compound I-80] | 1000 to 10000 nM | 100 to 1000 nM | – | – | < 100 nM | – | < 100 nM | < 100 nM | – | – |
| CCCn1c(C)c(C(=O)c2cc3ccsc3n2CCC)c2ccccc21 [Compound I-78] | – | 1000 to 10000 nM | < 100 nM | < 100 nM | < 100 nM | – | – | – | NS (“Not Significant,” which means less than 30% agonist activity when compared to the positive control) | NS (“Not Significant,” which means less than 30% agonist activity when compared to the positive control) |
| CCCn1c(C)c(C(=O)c2cc3ccsc3n2CCC)c2c1CCCC2 [Compound I-77] | – | 1000 to 10000 nM | – | – | < 100 nM | – | < 100 nM | < 100 nM | NS (“Not Significant,” which means less than 30% agonist activity when compared to the positive control) | NS (“Not Significant,” which means less than 30% agonist activity when compared to the positive control) |
| CCCn1c(C)c(C(=O)c2cc3cc(Cl)sc3[nH]2)c2c1CCCC2 [Compound I-76] | – | > 10000 nM | – | – | 100 to 1000 nM | – | 100 to 1000 nM | 100 to 1000 nM | – | NS (“Not Significant,” which means less than 30% agonist activity when compared to the positive control) |
| CCCn1c(C)c(C(=O)c2cc3ccsc3n2CCC)c2cc(C)ccc21 [Compound I-69] | – | 1000 to 10000 nM | < 100 nM | < 100 nM | < 100 nM | – | – | – | – | NS (“Not Significant,” which means less than 30% agonist activity when compared to the positive control) |
| CCCn1c(C(=O)c2c(C)n(CCN3CCOCC3)c3ccccc23)cc2ccsc21 [Compound I-73] | – | 100 to 1000 nM | < 100 nM | < 100 nM | < 100 nM | 100 to 1000 nM | – | – | – | – |
| CCCn1c(C)c(C(=O)c2cc3sccc3[nH]2)c2ccccc21 [Compound I-81] | – | 1000 to 10000 nM | 100 to 1000 nM | 100 to 1000 nM | 100 to 1000 nM | – | – | – | – | NS (“Not Significant,” which means less than 30% agonist activity when compared to the positive control) |
